Data on one substance can be found in US20250099466A1 (BRISTOL-MYERS SQUIBB COMPANY, priority 2021, published 2025).

Oligonucleotides are written 5' to 3', each unit as a sugar letter and its base; * is a phosphorothioate linkage, no mark a phosphodiester; rarer units and linkages stand in square brackets, end groups in braces. Plain capitals give the bases only. e = 2'-O-(2-methoxyethyl) (MOE); [5mC] = 5-methylcytosine; d = 2'-deoxy (DNA)

The series deals with electrically induced carotid artery thrombosis (ECAT) in rabbits; rabbit FXI mRNA. Nature of the series: Rabbit ECAT model after FXI antisense oligonucleotide treatment. In kind it is in vivo. The note with it: subcutaneous twice weekly for 4 weeks. Here is the method: The rabbit ECAT model, described by Wong et al. was used in the rabbit ECAT study (Wang et al. J. Pharmacol. Exp. Ther. 295:212-8, 2002). The ECAT model was conducted 3 to 4 days after the last dose of vehicle, FXI-ASO2, or FXI-ASO1. FXI-ASO1 has the nominal nucleotide sequence of […] (SEQ ID NO: 1) and is complementary to a sequence within rabbit FXI mRNA. FXI-ASO2 (control ASO) has the nominal nucleotide sequence of […] (SEQ ID NO: 2) and has no known complementary sequence in rabbit mRNA. Oligonucleotides were chemically modified with phosphorothioate in the backbone and 2′-O-methoxyethyl on the wings with a central deoxy gap (so-called 5-10-5 design). Cytosine bases were rendered as 5-methylcytosine.
Separate samples for each dose of FXI-ASO1 and FXI-ASO2 were weighed on an analytical balance. […]
Male New Zealand White rabbits were anesthetized with ketamine (50 mg/kg+50 mg/kg/h intramuscularly) and xylazine (10 mg/kg+10 mg/kg/h intramuscularly). […] Carotid blood flow was measured with an electromagnetic flow probe continuously beginning 30 min before the electrical stimulation and over a 90-min period after stimulation to monitor thrombosis-induced occlusion. Integrated carotid blood flow, as a percentage of pre-electrical stimulation control period, was measured by the area under the flow-time curve. […]

As for “FXI-ASO2: control ASO CCTTCCCTGAAGGTTCCTCC (SEQ ID NO: 2), no known complementary sequence in rabbit mRNA (e[5mC]*e[5mC]*eT*eT*e[5mC]*d[5mC]*d[5mC]*dT*dG*dA*dA*dG*dG*dT*dT*e[5mC]*e[5mC]*eT*e[5mC]*e[5mC])”, the thrombus weight entry is listed as “did not reduce thrombus weight”.
